Values quoted from earlier work, collected in article PMC6099358 (Diabetes, Obesity & Metabolism, 2018).
Like-named read-outs stand apart in the source and are kept apart here.

Test system: participants with T1DM
Details: cited from earlier work; for DKA: vs placebo 0; for DKA events, certain / DKA events, potential: 24 weeks

| Compound | DKA (100 mg) | DKA (300 mg) | DKA events, certain (5 mg) | DKA events, potential (5 mg) | DKA events, certain (10 mg) | DKA events, potential (10 mg) |
| --- | --- | --- | --- | --- | --- | --- |
| Cc1ccc([C@@H]2O[C@H](CO)[C@@H](O)[C@H](O)[C@H]2O)cc1Cc1ccc(-c2ccc(F)cc2)s1 [canagliflozin] | 5 [4.3%] participants [%] | 7 [6.0%] participants [%] |  |  |  |  |
| CCOc1ccc(Cc2cc([C@@H]3O[C@H](CO)[C@@H](O)[C@H](O)[C@H]3O)ccc2Cl)cc1 [dapagliflozin] |  |  | 4 [1%] participants [%] | 16 [6%] participants [%] | 5 [2%] participants [%] | 19 [6%] participants [%] |
